Results as given in patent publication US20160069865A1, “GM1 GANGLIOSIDOSIS HUMAN CELL MODEL AND USE THEREOF” (Korea Research Institute of Bioscience and Biotechnology, priority 2014, published 2016).

Columns and labels:
GM1-NPCs [1] = assay: Morphology of GM1-NPCs originated neurosphere after treatment with inflammasome inhibitors (phase-contrast microscopy); format: cell-based, human; conditions: GM1-iPSCs and neural progenitor cells differentiated from the same; summary statement
Protocol: To investigate the recovery of neural damage caused by the increased activation of inflammasome related metabolic pathway in GM1, GM1-NPCs were treated with the inflammasome inhibitors IL1β antagonist (rhIL1RA) and caspase-1 inhibitor (Z-YVAD-FMK), and then the morphology of GM1-NPCs was investigated.
Particularly, the differentiation of GM1-NPCs was induced by the same manner as described in Example <4-1>. Then, the induced GM1-NPCs were cultured in the culture medium respectively treated with 1 μg/ml rhIL1RA (R&D Systems, USA) or 10 μM Z-YVAD-FMK (Merck Millipore, Germany) in order to inhibit inflammasome therein. 2˜4 weeks later, the cultured GM1-NPCs originated neurosphere was obtained. The morphology of neurosphere was observed by phase-contrast microscopy.

GM1-NPCs [2] = assay: Gene expression pattern in GM1-NPCs treated with inflammasome inhibitor (microarray, qPCR); format: cell-based, human; conditions: for direction of the gene expression pattern change: genes with changed expression in treated GM1-NPCs, FIG. 31, FIG. 33; for share of oligo probe pairs / genes displaying the changed expression pattern: microarray, total 27,375 oligo probe pairs, GM1-NPCs treated with 10 μM Z-YVAD-FMK or 1 μg/ml rhIL1RA
Protocol: To investigate whether or not the neural damage could be alleviated according to the increase of the activation of inflammasome related metabolic pathway in GM1, the gene expression pattern in GM1-NPCs treated with the inflammasome inhibitor was investigated.
Particularly, GM1-NPCs were differentiated according to the method described in Example <4-1>, and then treated with rhIL1RA or Z-YVAD-FMK by the same manner as described in Example <9-1>. Microarray was performed by the same manner as described in Example <7-1> in order to investigate the up- or down-regulation of the gene involved in inflammasome. […] WT-NPC was used as the normal control. As for the negative control, GM1-NPCs were treated with DMSO instead of rhIL1RA or Z-YVAD-FMK. The expression pattern (either up- or down regulation) and the mRNA expression level were investigated by the same manner as described above.

[3] = GM1-NPCs treated with 10 μM Z-YVAD-FMK, FIG. 32

| Compound | GM1 patient-specific cell morphology and gene expression pattern (GM1-NPCs [1]) | increase of the reduced B4GALNT expression (GM1-NPCs [2]; [3]) [fold] | reduction of GLB1 expression compared with that in GM1-NPCs (GM1-NPCs [2]; [3]) [%] | direction of the gene expression pattern change (GM1-NPCs [2]) | share of oligo probe pairs / genes displaying the changed expression pattern (GM1-NPCs [2]) [%] |
| --- | --- | --- | --- | --- | --- |
| COC(=O)C[C@H](NC(=O)[C@H](C)NC(=O)[C@@H](NC(=O)C(Cc1ccc(O)cc1)NC(=O)OCc1ccccc1)C(C)C)C(=O)CF (stereo partly drawn) [Z-YVAD-FMK, methyl (3S)-3-[(2S)-2-[(2S)-2-(2-{[(benzyloxy)carbonyl]amino}-3-(4-hydroxyphenyl)propanamido)-3-methylbutanamido]propanamido]-5-fluoro-4-oxopentanoate] | recovering the GM1 patient-specific cell morphology and gene expression pattern to the normal ones | 2.6 | 47 | tendency to recover their gene expression patterns changed by GM1 mediated neural damage back to the normal pattern | 9.3 |
| rhIL1RA: interleukin 1-receptor antagonist protein, SEQ. ID. NO: 2, commercial (cat #280-RA-050; R&D systems) | recovering the GM1 patient-specific cell morphology and gene expression pattern to the normal ones |  |  | tendency to recover the abnormal gene expression in GM1 cells to the normal expression pattern | 3.6 |
